# Measured values: the supplement of paper PMC10307832
# Columns and labels:
# Assay in all cases: relative viability (nuclei count vs DMSO), 5 days (fraction); higher = more cells survive
# [1] = compound: CC[C@H](C)N1C=C(C2=C(C=C(C=C21)C3=CN=C(C=C3)N4CCNCC4)C(=O)NCC5=C(C=C(NC5=O)C)C)C [GSK126] + N=C(N)NC(=N)NCCc1ccccc1 [Phenformin] (partner 250 µM)
# In short: (§1)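 Lung cancer cell lines in 1536-well plates got either a single drug or a fixed anchor-drug dose together with five library-drug doses (not always all listed) in √10 steps, by pin tool, on the day after seeding. Nuclei were counted after 5 days, and relative viability is the treated-to-vehicle ratio of nuclei counts. Values are medians of duplicate plates.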
# [2] = compound: C1CC(C1)(C(=O)O)C(=O)O.[NH2-].[NH2-].[Pt+2] [Carboplatin] + Cc1cc(Nc2cc(N3CCN(C)CC3)nc(Sc3ccc(NC(=O)C4CC4)cc3)n2)n[nH]1 [Tozasertib] (partner 0.1 µM)
# In short: as §1
# [3] = compound: C1CC(C1)(C(=O)O)C(=O)O.[NH2-].[NH2-].[Pt+2] [Carboplatin] + COc1cccc2cc(-c3nc([C@H]4CC[C@H](C(=O)O)CC4)n4ncnc(N)c34)[nH]c12 [OSI-027] (partner 0.5 µM)
# In short: as §1
# [4] = compound: NS(=O)(=O)OC[C@@H]1C[C@@H](n2ccc3c(N[C@H]4CCc5ccccc54)ncnc32)C[C@@H]1O [MLN4924] + CC(=O)c1c(C)c2cnc(Nc3ccc(N4CCNCC4)cn3)nc2n(C2CCCC2)c1=O [Palbociclib] (partner 0.5 µM)
# In short: as §1
cell line,measurement,setting,value
UMC-11,relative viability,[1]; first compound 0.08 µM,0.35
same,relative viability,[1]; first compound 0.253 µM,0.344
same,relative viability,[1]; first compound 0.8 µM,0.312
same,relative viability,[1]; first compound 2.53 µM,0.32
same,relative viability,[1]; first compound 8 µM,0.3
same,relative viability,[2]; first compound 0.08 µM,0.22
same,relative viability,[2]; first compound 0.253 µM,0.208
same,relative viability,[2]; first compound 0.8 µM,0.207
same,relative viability,[2]; first compound 2.53 µM,0.193
same,relative viability,[2]; first compound 8 µM,0.212
same,relative viability,[3]; first compound 0.08 µM,0.462
same,relative viability,[3]; first compound 0.253 µM,0.432
same,relative viability,[3]; first compound 0.8 µM,0.456
same,relative viability,[3]; first compound 2.53 µM,0.462
same,relative viability,[3]; first compound 8 µM,0.405
same,relative viability,[4]; first compound 0.04 µM,0.335
same,relative viability,[4]; first compound 0.1265 µM,0.336
same,relative viability,[4]; first compound 0.4 µM,0.321
same,relative viability,[4]; first compound 1.265 µM,0.245
same,relative viability,[4]; first compound 4 µM,0.249
